These results are taken from ChEMBL document CHEMBL6127156, “Azaspirooctane-carboxylates as Novel Activators/Modulators of M4 for the Treatment of Alzheimer's Disease and Parkinson's Disease” (ACS Med Chem Lett, 2024).

pEC50: −log10 of the molar value.

Type in all cases: functional, cell-based
Experiment [1] deals with T1, Muscarinic acetylcholine receptor M1 (Homo sapiens, UniProt P11229).
T1 sequence (P11229 whole entry): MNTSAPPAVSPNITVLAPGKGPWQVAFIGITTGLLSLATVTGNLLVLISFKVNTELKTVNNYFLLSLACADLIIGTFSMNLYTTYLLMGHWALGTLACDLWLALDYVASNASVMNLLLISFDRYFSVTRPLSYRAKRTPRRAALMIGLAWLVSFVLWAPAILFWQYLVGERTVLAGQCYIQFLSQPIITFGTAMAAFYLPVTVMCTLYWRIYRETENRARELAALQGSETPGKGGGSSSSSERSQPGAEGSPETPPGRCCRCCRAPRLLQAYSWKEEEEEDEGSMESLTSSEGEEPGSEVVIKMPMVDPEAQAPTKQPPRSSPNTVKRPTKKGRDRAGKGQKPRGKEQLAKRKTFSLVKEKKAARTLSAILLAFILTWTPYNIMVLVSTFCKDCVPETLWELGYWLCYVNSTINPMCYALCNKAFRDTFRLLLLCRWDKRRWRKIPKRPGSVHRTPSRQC
Put plainly: Modulatory activity at M1 receptor (unknown origin) expressed in CHO-K1 cells assessed as intracellular calcium flux incubated for 30 mins by Fluo-8 dye based FLIPR analysis. In general terms: Calcium flux is commonly read through the fluorescence of an indicator in the cells.

Experiment [2] concerns the target T2, Muscarinic acetylcholine receptor M4 (Homo sapiens, UniProt P08173).
T2 sequence (P08173 whole entry): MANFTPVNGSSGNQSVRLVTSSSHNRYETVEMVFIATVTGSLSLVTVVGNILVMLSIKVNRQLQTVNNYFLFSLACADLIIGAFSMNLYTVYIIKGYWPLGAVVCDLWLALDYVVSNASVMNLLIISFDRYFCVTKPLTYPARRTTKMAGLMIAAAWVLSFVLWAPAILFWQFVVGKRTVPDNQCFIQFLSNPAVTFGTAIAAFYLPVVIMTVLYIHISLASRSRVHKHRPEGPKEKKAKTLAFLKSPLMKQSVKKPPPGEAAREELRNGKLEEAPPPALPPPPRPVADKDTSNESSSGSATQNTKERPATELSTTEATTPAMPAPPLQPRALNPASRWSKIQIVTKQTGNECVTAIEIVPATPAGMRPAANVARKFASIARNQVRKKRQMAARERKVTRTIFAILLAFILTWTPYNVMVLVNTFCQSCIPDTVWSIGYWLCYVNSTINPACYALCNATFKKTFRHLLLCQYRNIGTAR
Put plainly: Modulatory activity at M4 receptor (unknown origin) expressed in CHO-K1 cells assessed as cAMP production by TR-FRET analysis. On the technique in general: Cyclic AMP is a second messenger, typically raised through Gs and lowered through Gi signalling.

The target in experiment [3] is T3, Muscarinic acetylcholine receptor M2 (Homo sapiens, UniProt P08172).
T3 sequence (P08172 whole entry): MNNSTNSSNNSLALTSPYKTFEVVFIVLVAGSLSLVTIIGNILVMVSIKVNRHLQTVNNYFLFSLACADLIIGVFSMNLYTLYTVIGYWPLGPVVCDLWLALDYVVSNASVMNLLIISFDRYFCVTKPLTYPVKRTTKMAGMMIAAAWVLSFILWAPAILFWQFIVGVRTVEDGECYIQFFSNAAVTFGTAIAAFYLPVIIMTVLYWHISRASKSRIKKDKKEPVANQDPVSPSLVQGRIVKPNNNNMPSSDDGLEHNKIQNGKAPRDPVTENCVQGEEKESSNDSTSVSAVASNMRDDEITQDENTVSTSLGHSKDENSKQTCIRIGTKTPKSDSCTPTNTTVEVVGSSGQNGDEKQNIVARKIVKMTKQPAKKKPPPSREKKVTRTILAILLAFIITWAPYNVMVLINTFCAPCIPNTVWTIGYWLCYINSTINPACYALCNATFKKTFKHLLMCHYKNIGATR
Put plainly: Modulatory activity at M2 receptor (unknown origin) expressed in CHO-K1 cells assessed as cAMP production by TR-FRET analysis.

The target of experiment [4] is Muscarinic acetylcholine receptor M3 (Homo sapiens, UniProt P20309). Put plainly: Modulatory activity at M3 receptor (unknown origin) expressed in CHO-K1 cells assessed as intracellular calcium flux incubated for 30 mins by Fluo-8 dye based FLIPR analysis.
Experiment [5] addresses T4, Muscarinic acetylcholine receptor M5 (Homo sapiens, UniProt P08912).
T4 sequence (P08912 whole entry): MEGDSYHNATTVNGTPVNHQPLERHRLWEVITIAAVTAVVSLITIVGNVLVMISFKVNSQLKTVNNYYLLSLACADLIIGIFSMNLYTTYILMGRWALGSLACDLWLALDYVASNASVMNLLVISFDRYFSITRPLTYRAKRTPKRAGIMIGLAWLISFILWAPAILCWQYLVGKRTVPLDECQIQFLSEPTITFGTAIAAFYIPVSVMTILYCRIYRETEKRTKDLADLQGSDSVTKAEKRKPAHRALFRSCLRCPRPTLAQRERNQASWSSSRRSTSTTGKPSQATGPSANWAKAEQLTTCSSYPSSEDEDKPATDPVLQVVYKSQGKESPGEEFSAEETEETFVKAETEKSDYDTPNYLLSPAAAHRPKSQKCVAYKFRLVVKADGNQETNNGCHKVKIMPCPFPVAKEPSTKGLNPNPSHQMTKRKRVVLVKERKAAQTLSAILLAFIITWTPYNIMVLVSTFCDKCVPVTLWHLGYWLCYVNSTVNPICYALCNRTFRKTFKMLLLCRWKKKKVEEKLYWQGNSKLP
Put plainly: Modulatory activity at M5 receptor (unknown origin) expressed in CHO-K1 cells assessed as intracellular calcium flux incubated for 30 mins by Fluo-8 dye based FLIPR analysis.

Muscarinic acetylcholine receptor M3, sequence (P20309 whole entry): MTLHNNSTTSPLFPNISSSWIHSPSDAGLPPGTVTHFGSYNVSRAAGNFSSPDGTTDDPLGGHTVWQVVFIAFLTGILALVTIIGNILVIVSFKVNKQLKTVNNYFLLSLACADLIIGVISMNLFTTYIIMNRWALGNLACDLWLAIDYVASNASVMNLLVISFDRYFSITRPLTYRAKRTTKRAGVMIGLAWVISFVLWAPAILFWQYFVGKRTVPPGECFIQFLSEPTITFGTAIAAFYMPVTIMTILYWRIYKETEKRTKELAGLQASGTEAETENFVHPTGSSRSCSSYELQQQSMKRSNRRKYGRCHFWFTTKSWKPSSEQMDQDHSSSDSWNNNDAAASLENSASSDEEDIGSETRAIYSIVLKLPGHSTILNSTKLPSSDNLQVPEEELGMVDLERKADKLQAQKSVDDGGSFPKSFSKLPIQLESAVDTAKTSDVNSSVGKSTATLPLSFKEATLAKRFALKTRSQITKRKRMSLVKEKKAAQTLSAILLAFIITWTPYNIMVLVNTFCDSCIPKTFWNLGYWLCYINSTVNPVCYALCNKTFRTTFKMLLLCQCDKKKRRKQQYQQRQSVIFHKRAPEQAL

A word on the pEC50: it is −log10 of the EC50, conventionally taken in molar units. Regarding `CCOC(=O)N1CC2(CC[C@@H](N3CCN(c4cc(F)cnc4-c4cnn(C(F)F)c4)CC3)C2)C1`, the pEC50 is less than 5.00 in experiment [1]; greater than 7.70 in experiment [2]; greater than 7.70 in experiment [3]; less than 5.00 in experiment [4]; less than 5.00 in experiment [5].

For the molecule `CCOC(=O)N1CC2(CC[C@@H](N3CCC(O)(c4cc(F)cnc4-c4cnccn4)CC3)C2)C1`, the figures for the pEC50 in experiment [2] and in experiment [3] were greater than 7.70 and less than 5.00, respectively.

On to `CCOC(=O)N1CC2(CC[C@@H](N3CCN(c4cc(F)cnc4-c4cnn(C(C)C)c4)CC3)C2)C1`, for which the pEC50 was less than 5.00 in experiment [1]; greater than 7.70 in experiment [2]; 7.00 in experiment [3]; less than 5.00 in experiment [4]; less than 5.00 in experiment [5].

As for `CCOC(=O)N1CC2(CC[C@@H](N3CCN(c4cc(F)cnc4-c4ccc(=O)[nH]c4)CC3)C2)C1`, the pEC50 in experiment [1] is greater than 7.70; in experiment [2] it was greater than 7.70; in experiment [3] it was less than 5.00; in experiment [4], less than 5.00; in experiment [5] it was 7.70.

On to `CCOC(=O)N1CC2(CC[C@H](N3CCC(O)(c4cc(F)cnc4-c4cnccn4)CC3)C2)C1`, for which the pEC50 in experiment [2] is 7.70; in experiment [3], less than 5.00.

Regarding `CCOC(=O)N1CC2(CC[C@@H](N3CCN(c4cc(F)cnc4-c4cncc(OC)c4)CC3)C2)C1`, the pEC50 is greater than 7.70 in experiment [1]; greater than 7.70 in experiment [2]; less than 5.00 in experiment [3]; less than 5.00 in experiment [4]; less than 5.00 in experiment [5].

As for `CCOC(=O)N1CC2(CC[C@@H](N3CCN(c4cc(F)cnc4-c4cccc(CO)c4)CC3)C2)C1`, the pEC50 in experiment [1] is less than 5.00; in experiment [2] it was greater than 7.70; in experiment [4], less than 5.00; in experiment [5], less than 5.00.

Take `CCOC(=O)N1CC2(CC[C@@H](N3CCN(c4cccnc4-c4ccc(F)nc4)CC3)C2)C1`: the pEC50 in experiment [1] is less than 5.00; in experiment [2] it was greater than 7.70; in experiment [3] it was less than 5.00; in experiment [4], less than 5.00; in experiment [5] it was 7.70.

As for `CCOC(=O)N1CC2(CC[C@@H](N3CCN(c4cc(F)cnc4-c4cncs4)CC3)C2)C1`, the pEC50 in experiment [1] is greater than 7.70; in experiment [2] it was greater than 7.70; in experiment [3], less than 5.00; in experiment [4] it was less than 5.00; in experiment [5], less than 5.00.

Take `CCOC(=O)N1CC2(CC[C@@H](N3CCN(c4cc(F)cnc4-c4cscn4)CC3)C2)C1`: the pEC50 was greater than 7.70 in experiment [2] and 7.00 in experiment [3].

Turning to `CCOC(=O)N1CC2(CC[C@@H](N3CCN(c4cc(F)cnc4-c4ccc(=O)n(C)c4)CC3)C2)C1`, the negative-log EC50 (pEC50) in experiment [1] is less than 5.00; in experiment [2] it was greater than 7.70; in experiment [3] it was less than 5.00; in experiment [4], less than 5.00; in experiment [5] it was less than 5.00.
